In PubChem BioAssay (NCI):
Values joined by “and” are separate entries in the source; they are usually repeats but may differ in a detail not shown here. Identical values can stand only once.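 Each compound was tested at five concentrations against cells in 96-well plates for 48 hours. The concentration for 50% growth inhibition is given as GI50. At the TGI there is no net growth.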

What was measured:
Test in all cases: NCI tumour cell line growth inhibition, 48 h; in the data active = GI50 below about 0.43 µM; inactive = the rest
[1] = system: MOLT-4 leukemia
[2] = system: NCI-H226 lung
[3] = system: NCI-H23 lung
[4] = system: NCI-H460 lung
[5] = system: NCI-H522 lung
[6] = system: OVCAR-3 ovarian
[7] = system: OVCAR-4 ovarian
[8] = system: OVCAR-5 ovarian
[9] = system: OVCAR-8 ovarian
[10] = system: RPMI-8226 leukemia
[11] = system: RXF 393 renal
[12] = system: RXF-631 renal
[13] = system: SF-268 CNS
[14] = system: SF-295 CNS
[15] = system: SF-539 CNS
[16] = system: SK-MEL-2 melanoma
[17] = system: SK-MEL-28 melanoma
[18] = system: SK-MEL-5 melanoma
[19] = system: SK-OV-3 ovarian
[20] = system: SN12C renal
[21] = system: SNB-19 CNS
[22] = system: SNB-75 CNS
[23] = system: SNB-78 CNS
[24] = system: SR leukemia
[25] = system: SW-620 colon
[26] = system: TK-10 renal
[27] = system: U251 CNS
[28] = system: UACC-257 melanoma
[29] = system: UACC-62 melanoma
[30] = system: UO-31 renal
[31] = system: XF 498 CNS

CC1(C)COC(c2ccc(C(F)(F)F)cc2C(O)c2ccc3ccccc3c2)=N1 (centres undefined)
> 10 µM: TGI [4] | TGI [5] | TGI [24]
> 10 µM and 37.9 µM: TGI [22]
> 100 µM: TGI [1] | TGI [2] | TGI [3] | TGI [6] | TGI [7] | TGI [8] | TGI [9] | TGI [10] | TGI [12] | TGI [13] | TGI [15] | TGI [16] | TGI [17] | TGI [18] | TGI [19] | TGI [20] | TGI [21] | TGI [23] | TGI [25] | TGI [26] | TGI [27] | TGI [28] | TGI [29] | TGI [30] | TGI [31]
> 10 µM and 44.3 µM: TGI [11]
inactive: GI50 [2] > 10 µM | GI50 [3] > 10 µM | GI50 [6] > 100 µM | GI50 [7] > 100 µM | GI50 [8] > 100 µM | GI50 [9] > 100 µM | GI50 [11] > 10 µM | GI50 [13] > 10 µM | GI50 [14] > 10 µM | GI50 [16] > 100 µM | GI50 [17] > 100 µM | GI50 [18] > 100 µM | GI50 [19] > 100 µM | GI50 [20] > 100 µM | GI50 [21] > 10 µM | GI50 [22] > 10 µM | GI50 [23] > 10 µM | GI50 [25] > 100 µM | GI50 [26] > 100 µM | GI50 [27] > 100 µM | GI50 [28] > 100 µM | GI50 [29] > 100 µM | GI50 [30] > 100 µM
> 10 µM and 42.5 µM: TGI [14]
